Experiments:
Prothrombin [1] = molecular target: T1, Prothrombin (Bos taurus, UniProt P00735); assay: Inhibitory activity against thrombin.
[2] = molecular target: Vitamin K-dependent protein C (Homo sapiens, UniProt P04070); assay: Inhibitory activity against Activated protein C
[3] = molecular target: Tissue-type plasminogen activator (Homo sapiens, UniProt P00750); assay: Inhibitory activity against single-chain tissue-type plasminogen activator (sc-tissue plasminogen activator)
Plasminogen = Plasminogen (Homo sapiens, UniProt P00747); assay: Inhibitory activity against Plasmin.
Coagulation factor XII = molecular target: T2, Coagulation factor XII (Homo sapiens, UniProt P00748); assay: Inhibitory activity against Coagulation factor XII
T2 sequence (P00748 whole entry): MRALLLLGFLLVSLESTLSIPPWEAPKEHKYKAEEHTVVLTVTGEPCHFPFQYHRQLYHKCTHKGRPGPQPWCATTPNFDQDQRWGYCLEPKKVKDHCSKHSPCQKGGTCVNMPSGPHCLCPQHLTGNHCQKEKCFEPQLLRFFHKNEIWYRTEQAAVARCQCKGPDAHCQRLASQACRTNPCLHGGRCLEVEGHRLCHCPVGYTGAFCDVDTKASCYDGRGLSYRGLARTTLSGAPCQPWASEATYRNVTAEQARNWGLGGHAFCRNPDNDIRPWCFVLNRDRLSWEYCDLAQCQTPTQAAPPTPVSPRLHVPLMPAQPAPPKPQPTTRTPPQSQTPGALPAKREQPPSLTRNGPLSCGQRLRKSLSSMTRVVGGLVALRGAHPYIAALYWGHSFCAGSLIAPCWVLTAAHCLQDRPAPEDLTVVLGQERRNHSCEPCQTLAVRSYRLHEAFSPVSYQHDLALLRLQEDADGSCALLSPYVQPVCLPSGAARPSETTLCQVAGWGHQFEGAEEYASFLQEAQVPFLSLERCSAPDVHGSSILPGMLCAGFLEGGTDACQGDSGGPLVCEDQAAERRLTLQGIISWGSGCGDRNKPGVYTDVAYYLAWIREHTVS

Prothrombin [4] = molecular target: T1, Prothrombin
Serine protease 1 = molecular target: T3, Serine protease 1 (Bos taurus, UniProt P00760); assay: Inhibitory activity against trypsin
T3 sequence (P00760 whole entry): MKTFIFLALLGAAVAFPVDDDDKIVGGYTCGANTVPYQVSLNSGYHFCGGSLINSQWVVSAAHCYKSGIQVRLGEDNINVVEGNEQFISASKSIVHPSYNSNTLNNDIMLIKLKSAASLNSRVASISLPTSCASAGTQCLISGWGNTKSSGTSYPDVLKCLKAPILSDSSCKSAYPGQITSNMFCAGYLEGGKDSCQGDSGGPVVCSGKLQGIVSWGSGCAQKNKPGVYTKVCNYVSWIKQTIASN

[5] = Concentration for doubling of partial thromboplastin time; format: functional, Homo sapiens
Coagulation factor X = Coagulation factor X (Bos taurus, UniProt P00743); assay: Inhibitory activity against coagulation factor X.
[6] = Concentration for doubling of prothrombin time; format: functional, Homo sapiens
Plasma kallikrein [7] = molecular target: T4, Plasma kallikrein (Homo sapiens, UniProt P03952); assay: Inhibitory activity against plasma kallikrein (PK.); format: cell-free
[8] = Concentration for doubling of thrombin time; format: functional, Homo sapiens
[9] = molecular target: T5, Urokinase-type plasminogen activator (Homo sapiens, UniProt P00749); assay: Inhibitory activity against urokinase (UK )
[10] = molecular target: T5, Urokinase-type plasminogen activator; assay: Inhibitory activity against UK.
Plasma kallikrein [11] = molecular target: T4, Plasma kallikrein; assay: Inhibitory activity against Kallikrein (PK)
[12] = 50 mg/kg was administered orally in anesthetized rats and the concentration in plasma was determined after 5 minutes.; format: ADME, organism-based; conditions: rat, po, read-out: Activity
[13] = 1 mg/kg was administered intravenously in anesthetized rats and the concentration in plasma was determined after 45 minutes.; conditions: rat, iv
[14] = 50 mg/kg was administered orally in anesthetized rats and the concentration in plasma was determined after 30 minutes.; conditions: rat, po
[15] = 50 mg/kg was administered orally in anesthetized rats and the concentration in plasma was determined after 45 minutes.; format: ADME, organism-based; conditions: rat, po, read-out: Activity
[16] = 1 mg/kg was administered intravenously in anesthetized rats and the concentration in plasma was determined after 90 minutes.; conditions: rat, iv
[17] = 1 mg/kg was administered intravenously in anesthetized rats and the concentration in plasma was determined after 5 minutes.; conditions: rat, iv
[18] = 50 mg/kg was administered orally in anesthetized rats and the concentration in plasma was determined after 15 minutes.; format: ADME, organism-based; conditions: rat, po, read-out: Activity
[19] = 50 mg/kg was administered orally in anesthetized rats and the concentration in plasma was determined after 120 minutes.; conditions: rat, po
[20] = 50 mg/kg was administered orally in anesthetized rats and the concentration in plasma was determined after 90 minutes.; format: ADME, organism-based; conditions: rat, po, read-out: Activity
[21] = 1 mg/kg was administered intravenously in anesthetized rats and the concentration in plasma was determined after 120 minutes.; conditions: rat, iv
[22] = 1 mg/kg was administered intravenously in anesthetized rats and the concentration in plasma was determined after 180 minutes.; conditions: rat, iv
[23] = 1 mg/kg was administered intravenously in anesthetized rats and the concentration in plasma was determined after 30 minutes.; conditions: rat, iv
[24] = 50 mg/kg was administered orally in anesthetized rats and the concentration in plasma was determined after 180 minutes.; conditions: rat, po
[25] = 1 mg/kg was administered intravenously in anesthetized rats and the concentration in plasma was determined after 2 minutes.; conditions: rat, iv
[26] = 1 mg/kg was administered intravenously in anesthetized rats and the concentration in plasma was determined after 15 minutes.; conditions: rat, iv
[27] = 1 mg/kg was administered intravenously in anesthetized rats and the concentration in plasma was determined after 240 minutes.; conditions: rat, iv
[28] = 1 mg/kg was administered intravenously in anesthetized rats and the concentration in plasma was determined after 60 minutes.; conditions: rat, iv
[29] = 50 mg/kg was administered orally in anesthetized rats and the concentration in plasma was determined after 60 minutes.; conditions: rat, po

T4 sequence (P03952 20-390 limits assumed): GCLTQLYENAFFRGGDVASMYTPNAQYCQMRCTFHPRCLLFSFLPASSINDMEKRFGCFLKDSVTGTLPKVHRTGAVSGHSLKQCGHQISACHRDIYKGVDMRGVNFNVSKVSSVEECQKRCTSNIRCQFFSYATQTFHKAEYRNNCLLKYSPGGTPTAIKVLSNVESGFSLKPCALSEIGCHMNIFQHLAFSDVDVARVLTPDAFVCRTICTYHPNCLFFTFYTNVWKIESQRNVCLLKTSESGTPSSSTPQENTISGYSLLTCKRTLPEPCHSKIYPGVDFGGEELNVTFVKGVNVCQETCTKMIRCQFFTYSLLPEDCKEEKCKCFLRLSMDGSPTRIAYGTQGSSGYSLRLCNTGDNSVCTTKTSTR
T4 sequence (P03952 391-638 limits assumed): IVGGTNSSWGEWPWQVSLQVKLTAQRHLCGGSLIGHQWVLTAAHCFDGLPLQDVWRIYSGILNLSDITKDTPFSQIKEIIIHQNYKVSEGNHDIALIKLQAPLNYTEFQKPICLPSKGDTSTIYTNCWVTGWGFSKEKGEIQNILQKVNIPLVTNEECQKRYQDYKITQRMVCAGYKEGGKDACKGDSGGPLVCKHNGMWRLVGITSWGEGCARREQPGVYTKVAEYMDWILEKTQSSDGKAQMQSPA
Chain of Coagulation factor X (P00743 41-180 limits assumed): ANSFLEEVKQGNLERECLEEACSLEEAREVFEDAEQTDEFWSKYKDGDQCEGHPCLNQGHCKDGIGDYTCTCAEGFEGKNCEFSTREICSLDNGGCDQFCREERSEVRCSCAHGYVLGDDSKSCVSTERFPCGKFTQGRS
Chain of Coagulation factor X (P00743 234-492 limits assumed): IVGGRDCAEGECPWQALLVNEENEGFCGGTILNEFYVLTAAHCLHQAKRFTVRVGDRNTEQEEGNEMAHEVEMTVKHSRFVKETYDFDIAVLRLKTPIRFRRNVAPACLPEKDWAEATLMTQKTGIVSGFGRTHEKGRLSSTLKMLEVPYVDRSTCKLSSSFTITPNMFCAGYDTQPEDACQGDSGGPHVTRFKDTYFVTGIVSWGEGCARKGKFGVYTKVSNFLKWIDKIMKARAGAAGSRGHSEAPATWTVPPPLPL
Chain of Tissue-type plasminogen activator (P00750 whole entry): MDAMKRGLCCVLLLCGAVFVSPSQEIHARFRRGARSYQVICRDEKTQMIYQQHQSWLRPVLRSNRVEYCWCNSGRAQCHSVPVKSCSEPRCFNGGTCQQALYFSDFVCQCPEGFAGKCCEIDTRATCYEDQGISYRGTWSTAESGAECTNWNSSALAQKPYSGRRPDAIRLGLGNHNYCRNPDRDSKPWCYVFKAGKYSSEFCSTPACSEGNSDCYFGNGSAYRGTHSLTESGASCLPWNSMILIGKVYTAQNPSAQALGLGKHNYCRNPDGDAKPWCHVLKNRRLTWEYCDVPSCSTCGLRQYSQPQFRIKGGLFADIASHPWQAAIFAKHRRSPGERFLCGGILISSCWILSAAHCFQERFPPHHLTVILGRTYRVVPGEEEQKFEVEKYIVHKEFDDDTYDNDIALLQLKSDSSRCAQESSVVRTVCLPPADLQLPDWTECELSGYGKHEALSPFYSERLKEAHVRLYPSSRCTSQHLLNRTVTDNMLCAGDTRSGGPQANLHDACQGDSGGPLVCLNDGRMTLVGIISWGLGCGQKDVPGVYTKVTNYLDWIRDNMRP
Chain of Vitamin K-dependent protein C (P04070 43-197 limits assumed): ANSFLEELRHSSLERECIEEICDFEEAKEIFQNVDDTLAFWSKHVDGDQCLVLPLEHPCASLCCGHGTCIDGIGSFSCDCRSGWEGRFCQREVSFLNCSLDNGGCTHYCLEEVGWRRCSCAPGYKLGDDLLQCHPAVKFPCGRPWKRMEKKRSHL
Chain of Vitamin K-dependent protein C (P04070 212-461 limits assumed): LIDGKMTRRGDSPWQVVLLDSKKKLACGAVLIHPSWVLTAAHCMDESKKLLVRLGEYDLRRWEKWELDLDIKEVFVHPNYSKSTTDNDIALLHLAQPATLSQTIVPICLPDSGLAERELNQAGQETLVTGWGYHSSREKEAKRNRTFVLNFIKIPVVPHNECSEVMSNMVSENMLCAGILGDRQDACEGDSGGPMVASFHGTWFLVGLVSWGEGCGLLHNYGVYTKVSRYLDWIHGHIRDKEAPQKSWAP
Chain of Plasminogen (P00747 97-580 limits assumed): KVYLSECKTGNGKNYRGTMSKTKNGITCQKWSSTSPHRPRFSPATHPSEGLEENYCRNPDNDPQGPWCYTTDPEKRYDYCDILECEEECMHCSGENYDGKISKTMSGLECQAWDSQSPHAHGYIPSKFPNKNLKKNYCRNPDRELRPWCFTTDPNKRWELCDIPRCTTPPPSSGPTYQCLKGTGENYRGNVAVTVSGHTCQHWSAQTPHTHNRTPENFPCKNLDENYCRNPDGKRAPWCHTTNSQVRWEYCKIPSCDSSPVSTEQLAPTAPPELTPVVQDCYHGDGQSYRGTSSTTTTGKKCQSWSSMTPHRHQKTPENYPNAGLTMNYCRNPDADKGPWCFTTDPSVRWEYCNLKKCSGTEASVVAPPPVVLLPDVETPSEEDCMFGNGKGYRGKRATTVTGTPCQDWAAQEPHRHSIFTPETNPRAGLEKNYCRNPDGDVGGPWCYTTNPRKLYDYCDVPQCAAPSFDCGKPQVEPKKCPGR
Chain of Plasminogen (P00747 581-810 limits assumed): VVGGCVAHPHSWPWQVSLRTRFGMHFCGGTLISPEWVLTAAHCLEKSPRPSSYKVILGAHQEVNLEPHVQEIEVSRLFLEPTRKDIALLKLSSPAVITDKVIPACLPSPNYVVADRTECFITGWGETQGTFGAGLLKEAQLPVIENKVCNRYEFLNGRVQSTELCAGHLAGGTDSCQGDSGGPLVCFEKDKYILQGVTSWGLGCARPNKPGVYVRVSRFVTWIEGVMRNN

Compound | Ki [2] [µM] | Ki [3] [µM] | Ki (Plasminogen) [µM] | Ki (Coagulation factor XII) [µM] | Ki (Prothrombin [4]) [µM] | Ki (Serine protease 1) [µM] | IC50 [5] [µM] | Ki (Coagulation factor X) [µM] | IC50 [6] [µM] | IC50 [8] [µM] | Ki [10] [µM] | Ki (Plasma kallikrein [11]) [µM] | other results
CC1CCN(C(=O)[C@@H](Cc2cccc(C(=N)N)c2)NS(=O)(=O)c2ccc3ccccc3c2)CC1 | – | – | – | – | – | – | – | – | – | – | – | – | Ki (Prothrombin [1]): 0.0025 µM
CN1CCN(C(=O)[C@@H](Cc2cccc(C(=N)N)c2)NS(=O)(=O)c2ccc3ccccc3c2)CC1 | 94 | > 1000 | 30 | 280 | 0.016 | 0.47 | 1.2 | 19 | 1.8 | 0.22 | – | – | Ki (Plasma kallikrein [7]): 35 µM; Ki [9]: 110 µM
N=C(N)c1cccc(C[C@@H](NS(=O)(=O)c2ccc3ccccc3c2)C(=O)N2CCN(C=O)CC2)c1 | 10.3 | 110 | 3.3 | 53 | 0.023 | 0.073 | 0.35 | 9.7 | 0.7 | 0.063 | 34 | 3.3 | –
CC(=O)N1CCN(C(=O)[C@@H](Cc2cccc(C(=N)N)c2)NS(=O)(=O)c2ccc3ccccc3c2)CC1 | 12 | 410 | 5.2 | 200 | – | 0.044 | 0.28 | 34 | 0.76 | 0.062 | 32 | 15 | concentration at 5 min [12]: 230 ng/mL; concentration at 0.75 h [13]: 170 ng/mL; concentration at 0.5 h [14]: 450 ng/mL; concentration at 0.75 h [15]: 410 ng/mL; concentration at 1.5 h [16]: 100 ng/mL; concentration at 5 min [17]: 2080 ng/mL; concentration at 0.25 h [18]: 410 ng/mL; concentration at 2 h [19]: 260 ng/mL; concentration at 1.5 h [20]: 270 ng/mL; concentration at 2 h [21]: 90 ng/mL; concentration at 3 h [22]: < 40 ng/mL; concentration at 0.5 h [23]: 270 ng/mL; concentration at 3 h [24]: 300 ng/mL; concentration at 2 min [25]: 3550 ng/mL; concentration at 0.25 h [26]: 610 ng/mL; concentration at 4 h [27]: < 40 ng/mL; concentration at 1 h [28]: 130 ng/mL; concentration at 1 h [29]: 380 ng/mL
